Measurements: article PMC10786919, “Design-rules for stapled peptides with in vivo activity and their application to Mdm2/X antagonists” (Nature Communications, 2024)
In brackets after ≈: the same amount, converted by molar mass. Positions of bridges follow the written chain, without caps; N, C: chain ends. Non-standard residues stand in square brackets, D forms with d. Residues, ends and D or L forms follow the SMILES beside them. Lys(N3) = [N-]=[N+]=NCCCC[C@H](N)C(=O)O; R8 = C=CCCCCCC[C@@](C)(N)C(=O)O; Cba = N[C@@H](CC1CCC1)C(=O)O; S5 = C=CCCC[C@](C)(N)C(=O)O; βAla = NCCC(=O)O

Legend:
[1] = Experimental LogD (partition coefficient); details: for logD: not stated, Partition Coeff LogD
[2] = in vitro; details: Nanoclick permeability assay EC50
Summary of the method: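 Azido-peptide permeability was read as loss of NanoBRET signal (donor 450 nm, acceptor 610 nm) after adding NanoBret618-azide at 10 μM final.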

[3] = Solubility assay (kinetic solubility, PBS pH 7); type: physicochemical; details: pH 7, PBS; for solubility kinetic: pH 7, aqueous buffer, kinetic from dmso stock, read-out: Solubility
Summary of the method: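 Std: 10 mM stock → 100 µM in ACN/MeOH/DMSO (10:80:10). Sol. [µM] = (sample peak area / std peak area) × std conc.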

[4] = physchem
[5] = Lactate dehydrogenase (LDH) release assay; type: cell-based; details: LDH: Cytotoxicity assay EC50
Summary of the method: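 LDH release, fluorometric membrane-integrity read-out; HCT116 with stable p53-responsive β-lactamase reporter; 8000 cells/well; 0.5% DMSO final; geometric mean, n≥3 biological replicates.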

SMILES | Partition Coeff LogD [1] | cell entry EC50 [2] [nM] | Solubility [3] | EPSA [4] [A^2] | EC50 [5] [nM] | logD [1] | solubility kinetic [3] [µM]
CC(=O)N[C@@H](CCCCN=[N+]=[N-])C(=O)NCCC(=O)N[C@@H](CC(C)C)C(=O)N[C@H](C(=O)N[C@@H](Cc1ccccc1)C(=O)N[C@]1(C)CCCCCCC=CCCC[C@@](C)(C(=O)N[C@@H](CO)C(=O)N[C@@H](Cc2ccccc2)C(=O)N[C@@H](Cc2ccccc2)C(N)=O)NC(=O)[C@H](CC2CCC2)NC(=O)[C@H](CCC(N)=O)NC(=O)[C@H](CO)NC(=O)[C@H](Cc2c[nH]c3ccccc23)NC(=O)[C@H](Cc2ccc(O)cc2)NC(=O)[C@H](CCC(=O)O)NC1=O)[C@@H](C)O [MP-545] (Ac-[Lys(N3)][βAla]LTF[R8]EYWSQ[Cba][S5]SFF-NH2; staple 6-13) | Poorly Behaved | 137 | Poorly Behaved | 241 | > 50600 | – | –
CC(=O)N[C@@H](CCCCN=[N+]=[N-])C(=O)NCCC(=O)N[C@@H](CC(C)C)C(=O)NC(C)(C)C(=O)N[C@@H](Cc1ccccc1)C(=O)N[C@]1(C)CCCCCCC=CCCC[C@@](C)(C(=O)N[C@@H](CO)C(=O)N[C@@H](C)C(=O)N[C@@H](C)C(N)=O)NC(=O)[C@H](CC2CCC2)NC(=O)[C@H](CCC(N)=O)NC(=O)[C@H](C)NC(=O)[C@H](Cc2c[nH]c3ccccc23)NC(=O)[C@H](Cc2ccc(O)cc2)NC(=O)[C@H](CCC(=O)O)NC1=O [MP-169] | – | 253 | – | 227 | > 50000 | 3.06 | 61.5 (≈ 120 µg/mL)
CC(=O)N[C@@H](CCCCN=[N+]=[N-])C(=O)NCCC(=O)N[C@@H](CCCNC(=N)N)C(=O)N[C@@H](Cc1ccc(O)cc1)C(=O)N[C@@H](Cc1ccccc1)C(=O)N[C@]1(C)CCCCCCC=CCCC[C@@](C)(C(=O)N[C@@H](CO)C(=O)N[C@@H](C)C(=O)N[C@@H](Cc2ccccc2)C(N)=O)NC(=O)[C@H](CC2CCC2)NC(=O)[C@H](CCC(N)=O)NC(=O)[C@H](C)NC(=O)[C@H](Cc2c[nH]c3ccccc23)NC(=O)[C@H](Cc2ccc(O)cc2)NC(=O)[C@H](CCC(=O)O)NC1=O [MP-5546] (Ac-[Lys(N3)][βAla]RYF[R8]EYWAQ[Cba][S5]SAF-NH2; staple 6-13) | – | 511 | – | 256 | > 50600 | 3.2 | 2 (≈ 4.3 µg/mL)
CC(=O)N[C@@H](CCCCN=[N+]=[N-])C(=O)NCCC(=O)N[C@@H](CC(C)C)C(=O)N[C@@H](Cc1c[nH]c2ccccc12)C(=O)N[C@@H](Cc1ccccc1)C(=O)N[C@]1(C)CCCCCCC=CCCC[C@@](C)(C(=O)N[C@@H](CO)C(=O)N[C@@H](C)C(=O)N[C@@H](C)C(N)=O)NC(=O)[C@H](CC2CCC2)NC(=O)[C@H](CCC(N)=O)NC(=O)[C@H](C)NC(=O)[C@H](Cc2c[nH]c3ccccc23)NC(=O)[C@H](Cc2ccc(O)cc2)NC(=O)[C@H](CCC(=O)O)NC1=O [MP-1184] (Ac-[Lys(N3)][βAla]LWF[R8]EYWAQ[Cba][S5]SAA-NH2; staple 6-13) | – | 360 | – | 239 | > 50000 | 3.21 | 28.5 (≈ 58.6 µg/mL)
CC(=O)N[C@@H](CCCCN=[N+]=[N-])C(=O)NCCC(=O)N[C@@H](CCCNC(=N)N)C(=O)N[C@H](C(=O)N[C@@H](Cc1ccccc1)C(=O)N[C@]1(C)CCCCCCC=CCCC[C@@](C)(C(=O)N[C@@H](CO)C(=O)N[C@@H](C)C(=O)N[C@@H](C)C(N)=O)NC(=O)[C@H](CC2CCC2)NC(=O)[C@H](CCCNC(=N)N)NC(=O)[C@H](C)NC(=O)[C@H](Cc2c[nH]c3ccccc23)NC(=O)[C@H](Cc2ccccc2)NC(=O)[C@H](CCC(=O)O)NC1=O)[C@@H](C)O [MP-538] (Ac-[Lys(N3)][βAla]RTF[R8]EFWAR[Cba][S5]SAA-NH2; staple 6-13) | – | 230 | – | 223 | 6780 | 3.16 | 5 (≈ 10.1 µg/mL)
CSCC[C@H](NC(=O)[C@H](CO)NC(=O)[C@]1(C)CCCC=CCCCCCC[C@@](C)(NC(=O)[C@H](Cc2ccccc2)NC(=O)[C@H](Cc2ccc(O)cc2)NC(=O)[C@H](CC(C)C)NC(=O)CCNC(=O)[C@H](CCCCN=[N+]=[N-])NC(C)=O)C(=O)N[C@@H](CCC(=O)O)C(=O)N[C@@H](Cc2ccc(O)cc2)C(=O)N[C@@H](Cc2c[nH]c3ccccc23)C(=O)N[C@@H](C)C(=O)N[C@@H](CCC(N)=O)C(=O)N[C@@H](CC2CCC2)C(=O)N1)C(=O)N[C@@H](CC(C)C)C(N)=O [MP-543] (Ac-[Lys(N3)][βAla]LYF[R8]EYWAQ[Cba][S5]SML-NH2; staple 6-13) | – | 139 | – | 234 | > 50600 | 3.56 | 30.5 (≈ 65.1 µg/mL)
CC(=O)N[C@@H](CCCCN=[N+]=[N-])C(=O)NCCC(=O)N[C@@H](CC(C)C)C(=O)N(C)[C@H](C(=O)N[C@@H](Cc1ccccc1)C(=O)N[C@]1(C)CCCCCCC=CCCC[C@@](C)(C(=O)N[C@@H](CO)C(=O)N[C@@H](C)C(=O)N[C@@H](C)C(N)=O)NC(=O)[C@H](CC2CCC2)NC(=O)[C@H](CCC(N)=O)NC(=O)[C@H](C)NC(=O)[C@H](Cc2c[nH]c3ccccc23)NC(=O)[C@H](Cc2ccc(O)cc2)NC(=O)[C@H](CCC(=O)O)NC1=O)[C@@H](C)O [MP-190] | – | 420 | – | 219 | > 50000 | 2.73 | 116 (≈ 229 µg/mL)
CC(=O)N[C@@H](CCCCN=[N+]=[N-])C(=O)NCCC(=O)N(C)[C@@H](CC(C)C)C(=O)N[C@H](C(=O)N[C@@H](Cc1ccccc1)C(=O)N[C@]1(C)CCCCCCC=CCCC[C@@](C)(C(=O)N[C@@H](CO)C(=O)N[C@@H](C)C(=O)N[C@@H](C)C(N)=O)NC(=O)[C@H](CC2CCC2)NC(=O)[C@H](CCC(N)=O)NC(=O)[C@H](C)NC(=O)[C@H](Cc2c[nH]c3ccccc23)NC(=O)[C@H](Cc2ccc(O)cc2)NC(=O)[C@H](CCC(=O)O)NC1=O)[C@@H](C)O [MP-189] | – | 865 | – | 226 | > 50000 | 3.04 | 122 (≈ 242 µg/mL)
CC(=O)N[C@@H](CCCCN=[N+]=[N-])C(=O)NCCC(=O)N[C@@H](CCCNC(=N)N)C(=O)N[C@H](C(=O)N[C@@H](Cc1ccccc1)C(=O)N[C@]1(C)CCCCCCC=CCCC[C@@](C)(C(=O)N[C@@H](CO)C(=O)N[C@@H](CCCNC(=N)N)C(=O)N[C@@H](C)C(N)=O)NC(=O)[C@H](CC2CCC2)NC(=O)[C@H](CCC(N)=O)NC(=O)[C@H](CCCNC(=N)N)NC(=O)[C@H](Cc2c[nH]c3ccccc23)NC(=O)[C@H](Cc2ccc(O)cc2)NC(=O)[C@H](CCC(=O)O)NC1=O)[C@@H](C)O [MP-539] (Ac-[Lys(N3)][βAla]RTF[R8]EYWRQ[Cba][S5]SRA-NH2; staple 6-13) | – | 293 | – | 222 | 13400 | 2.4 | 97.5 (≈ 213 µg/mL)
CC(C)C[C@@H]1NC(=O)[C@H](C)NC(=O)[C@H](Cc2c[nH]c3ccccc23)NC(=O)[C@H](Cc2ccc(O)cc2)NC(=O)[C@H](CCC(=O)O)NC(=O)[C@](C)(NC(=O)[C@H](Cc2ccccc2)NC(=O)[C@H](CO)NC(=O)[C@@H](NC(=O)[C@H](CO)NC(=O)CNC(=O)[C@H](CO)NC(=O)[C@@H](N)CCCCN=[N+]=[N-])[C@@H](C)O)CCCCCCC=CCCC[C@@](C)(C(N)=O)NC(=O)[C@H](CC(C)C)NC1=O [MP-75496] | – | 518 | – | 236 | > 50600 | 2.46 | 10 (≈ 18.1 µg/mL)
CC(=O)N[C@@H](CCCCN=[N+]=[N-])C(=O)NCCC(=O)N[C@@H](CC(C)C)C(=O)N[C@H](C(=O)N[C@@H](Cc1ccccc1)C(=O)N[C@]1(C)CCCCCCC=CCCC[C@@](C)(C(=O)N[C@@H](CO)C(=O)N[C@@H](Cc2ccccc2)C(=O)N[C@@H](Cc2ccccc2)C(N)=O)NC(=O)[C@H](CC2CCC2)NC(=O)[C@H](CCC(N)=O)NC(=O)[C@H](C)NC(=O)[C@H](Cc2c[nH]c3ccccc23)NC(=O)[C@H](Cc2ccc(O)cc2)NC(=O)[C@H](Cc2c[nH]c3ccccc23)NC1=O)[C@@H](C)O [MP-542] (Ac-[Lys(N3)][βAla]LTF[R8]WYWAQ[Cba][S5]SFF-NH2; staple 6-13) | – | 93.2 | Poorly Behaved | 242 | > 50600 | 4.46 | –
CC(=O)N[C@@H](CCCCN=[N+]=[N-])C(=O)NCCC(=O)N[C@@H](CC(C)C)C(=O)N[C@H](C(=O)N[C@@H](Cc1ccccc1)C(=O)N[C@]1(C)CCCCCCC=CCCC[C@@](C)(C(=O)N[C@@H](CO)C(=O)N[C@@H](C)C(=O)N[C@@H](C)C(N)=O)NC(=O)[C@H](CC2CCC2)NC(=O)[C@H](CCC(N)=O)NC(=O)C(C)(C)NC(=O)[C@H](Cc2c[nH]c3ccccc23)NC(=O)[C@H](Cc2ccc(O)cc2)NC(=O)[C@H](CCC(=O)O)NC1=O)[C@@H](C)O [MP-170] | – | 549 | – | 225 | > 50000 | 2.85 | 92.5 (≈ 184 µg/mL)
CC(=O)N[C@@H](CCCCN=[N+]=[N-])C(=O)NCCC(=O)N[C@@H](CC(C)C)C(=O)N[C@H](C(=O)N[C@@H](Cc1ccccc1)C(=O)N[C@]1(C)CCCCCCC=CCCC[C@@](C)(C(=O)N[C@@H](CO)C(=O)N[C@@H](C)C(=O)N[C@@H](C)C(N)=O)NC(=O)[C@H](CC2CCC2)NC(=O)[C@H](CCC(N)=O)NC(=O)[C@H](CCC(=O)O)NC(=O)[C@H](Cc2c[nH]c3ccccc23)NC(=O)[C@H](Cc2ccc(O)cc2)NC(=O)[C@H](CCC(=O)O)NC1=O)[C@@H](C)O [MP-180] | – | 732 | – | 235 | > 50000 | 2.38 | 93 (≈ 189 µg/mL)
